The assay concerns HCT-116 Firefly-luciferase reporter cells. In words: Cellular c-MYC Reporter Assay. It counts as cell-based. To be noted: Homo sapiens; untitled table following Table 8a; HCT-116 Firefly-luciferase reporter cells, 24 h; read-out: pIC50 (converted). In short, it runs like this:
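Compound exposure lasted 24 h at 37 °C, 5% CO2, in complete McCoy's 5A medium containing 0.2% DMSO, beginning 4–6 h post-seeding (5e4 cells/mL). Firefly luciferase signal measured by luminescence after 10 min ONE-Glo development at room temperature.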
On the technique in general: A reporter such as luciferase makes a cellular process visible.
For the molecule `Cc1cccc2ccnc(N(C(=O)c3cccc(Cn4ccnn4)c3F)[C@@H]3CCCNC3)c12` [Example 271, (R)-3-((1H-1,2,3-triazol-1-yl)methyl)-2-fluoro-N-(8-methylisoquinolin-1-yl)-N-(piperidin-3-yl)benzamide], the IC50 is 4.79 µM. To `O=C(c1ccc(Nc2ncccn2)cc1F)N(c1nccc2cccc(Cl)c12)[C@@H]1CCCNC1` [Example 272, (R)—N-(8-chloroisoquinolin-1-yl)-2-fluoro-N-(piperidin-3-yl)-4-(pyrimidin-2-ylamino)benzamide] belongs 0.437 µM. On to `Cc1cccc2ccnc(N(C(=O)c3cccc(Cn4nc5cccnc5n4)c3F)[C@@H]3CCCNC3)c12` [Example 273, (R)-3-((2H-[1,2,3]triazolo[4,5-b]pyridin-2-yl)methyl)-2-fluoro-N-(8-methylisoquinolin-1-yl)-N-(piperidin-3-yl)benzamide], for which the IC50 is 1.7 µM. To `Cc1cccc2ccnc(N(C(=O)c3ccc(Nc4ncccc4N)cc3F)[C@@H]3CCCNC3)c12` [Example 274, (R)-4-((3-aminopyridin-2-yl)amino)-2-fluoro-N-(8-methylisoquinolin-1-yl)-N-(piperidin-3-yl)benzamide] belongs 3.8 µM. As for `Cc1cccc2ccnc(N(C(=O)c3ccc(Nc4nccs4)cc3F)[C@@H]3CCCNC3)c12` [Example 275, (R)-2-fluoro-N-(8-methylisoquinolin-1-yl)-N-(piperidin-3-yl)-4-(thiazol-2-ylamino)benzamide], the IC50 was 3.89 µM. For `Cc1cccc2ccnc(N(C(=O)c3ccc(Nc4nccc5cccnc45)cc3F)[C@@H]3CCCNC3)c12` [Example 276, (R)-4-((1,7-naphthyridin-8-yl)amino)-2-fluoro-N-(8-methylisoquinolin-1-yl)-N-(piperidin-3-yl)benzamide], the IC50 was 7.08 µM. With `Cc1cccc2ccnc(N(C(=O)c3ccc(Nc4ccn(C)n4)cc3F)[C@@H]3CCCNC3)c12` [Example 277, (R)-2-fluoro-4-((1-methyl-1H-pyrazol-3-yl)amino)-N-(8-methylisoquinolin-1-yl)-N-(piperidin-3-yl)benzamide], the IC50 was 4.9 µM. As for `Cc1cc(C)c2c(N(C(=O)N3CCC(c4cc(C)no4)CC3)[C@@H]3CCCNC3)nccc2c1` [Example 278, (R)—N-(6,8-dimethylisoquinolin-1-yl)-4-(3-methylisoxazol-5-yl)-N-(piperidin-3-yl)piperidine-1-carboxamide], the IC50 is 0.49 µM.

For `CCOC(=O)c1cc(C2CCN(C(=O)N(c3nccc4cccc(C)c34)[C@@H]3CCCNC3)CC2)on1` [Example 279, ethyl (R)-5-(1-((8-methylisoquinolin-1-yl)(piperidin-3-yl)carbamoyl)piperidin-4-yl)isoxazole-3-carboxylate], the IC50 is 5.13 µM. For `Cc1cccc2ccnc(N(C(=O)c3ccc(Nc4ncns4)cc3F)[C@@H]3CCCNC3)c12` [Example 280, 2-fluoro-N-(8-methyl-1-isoquinolyl)-N-[(3R)-3-piperidyl]-4-(1,2,4-thiadiazol-5-ylamino)benzamide], the IC50 was 0.891 µM.

As for `Cc1cccc2ccnc(N(C(=O)c3ccc(Nc4nnc(C(F)(F)F)s4)cc3F)[C@@H]3CCCNC3)c12` [Example 281, 2-fluoro-N-(8-methyl-1-isoquinolyl)-N-[(3R)-3-piperidyl]-4-[[5-(trifluoromethyl)-1,3,4-thiadiazol-2-yl]amino] benzamide], the IC50 is 2.63 µM. Consider `Cc1cccc2ccnc(N(C(=O)c3cccc(Cn4nccn4)c3F)[C@@H]3CCCNC3)c12` [Example 282, (R)-3-((2H-1,2,3-triazol-2-yl)methyl)-2-fluoro-N-(8-methylisoquinolin-1-yl)-N-(piperidin-3-yl)benzamide], for which the IC50 is 4.17 µM.

For the molecule `O=C(c1ccc(-n2nnc3cccnc32)cc1F)N(c1nccc2ccc(Br)cc12)[C@@H]1CCCNC1` [Example 283, (R)-4-(3H-[1,2,3]triazolo[4,5-b]pyridin-3-yl)-N-(7-bromoisoquinolin-1-yl)-2-fluoro-N-(piperidin-3-yl)benzamide], the IC50 was 1.2 µM. Next, `Cc1ccnc(N(C(=O)c2ccc(-n3nnc4cccnc43)cc2F)[C@@H]2CCCNC2)c1Cl` [Example 284, (R)-4-(3H-[1,2,3]triazolo[4,5-b]pyridin-3-yl)-N-(3-chloro-4-methylpyridin-2-yl)-2-fluoro-N-(piperidin-3-yl)benzamide]: 1.2 µM; `Cc1cccc2ccnc(N(C(=O)c3ccc(-n4nnc(C(C)C)n4)cc3F)[C@@H]3CCCNC3)c12` [Example 285, (R)-2-fluoro-4-(5-isopropyl-2H-tetrazol-2-yl)-N-(8-methylisoquinolin-1-yl)-N-(piperidin-3-yl) benzamide]: 0.295 µM; `CCCc1nnn(-c2ccc(C(=O)N(c3nccc4cccc(C)c34)[C@@H]3CCCNC3)c(F)c2)n1` [Example 286, (R)-2-fluoro-N-(8-methylisoquinolin-1-yl)-N-(piperidin-3-yl)-4-(5-propyl-2H-tetrazol-2-yl) benzamide]: 0.195 µM. On to `Cc1cccc2ccnc(N(C(=O)N3CC=C(c4ccccc4)CC3)[C@@H]3CCCNC3)c12` [Example 287, (R)—N-(8-methylisoquinolin-1-yl)-4-phenyl-N-(piperidin-3-yl)-3,6-dihydropyridine-1(2H)-carboxamide], for which the IC50 was 5.89 µM. As to `Cc1cccc2ccnc(N(C(=O)N3CCC(c4cc(C(N)=O)no4)CC3)[C@@H]3CCCNC3)c12` [Example 288, (R)-5-(1-((8-methylisoquinolin-1-yl)(piperidin-3-yl)carbamoyl)piperidin-4-yl)isoxazole-3-carboxamide], the IC50 was 1.35 µM.

Regarding `O=C(c1ccc(-n2nnc3cccnc32)cc1F)N(c1ncccc1/C=C/CO)[C@@H]1CCCNC1` [Example 289, (R,E)-4-(3H-[1,2,3]triazolo[4,5-b]pyridin-3-yl)-2-fluoro-N-(3-(3-hydroxyprop-1-en-1-yl)pyridin-2-yl)-N-(piperidin-3-yl)benzamide], the IC50 is more than 5.89 µM. Turning to `Cc1cccc2ccnc(N(C(=O)c3ccc(Nc4ncco4)cc3F)[C@@H]3CCCNC3)c12` [Example 290, (R)-2-fluoro-N-(8-methylisoquinolin-1-yl)-4-(oxazol-2-ylamino)-N-(piperidin-3-yl) benzamide], the IC50 was 3.39 µM.

Turning to `O=C(c1ccc(-c2cccc3cnccc23)cc1F)N(c1cc2ccccc2cn1)[C@@H]1CCCNC1` [Example 291, (R)-2-fluoro-N-(isoquinolin-3-yl)-4-(isoquinolin-5-yl)-N-(piperidin-3-yl)benzamide], the IC50 is 1.26 µM. For the molecule `Cc1cccc2ccnc(N(C(=O)c3ccc(Nc4cccc(=O)[nH]4)cc3F)[C@@H]3CCCNC3)c12` [Example 292, (R)-2-fluoro-N-(8-methylisoquinolin-1-yl)-4-((6-oxo-1,6-dihydropyridin-2-yl)amino)-N-(piperidin-3-yl)benzamide], the IC50 was more than 20 µM. Consider `Cc1cccc2ccnc(N(C(=O)c3ccc(-n4nnc5ccc(C(=O)O)nc54)cc3F)[C@@H]3CCCNC3)c12` [Example 293, (R)-3-(3-fluoro-4-((8-methylisoquinolin-1-yl)(piperidin-3-yl)carbamoyl)phenyl)-3H-[1,2,3]triazolo[4,5-b]pyridine-5-carboxylic acid], for which the IC50 was more than 20 µM. Next, `Cc1cccc2ccnc(N(C(=O)c3ccc(-c4cnn(C)c4C(=O)O)cc3)[C@@H]3CCCNC3)c12` [Example 294, 2-methyl-4-[4-[(8-methyl-1-isoquinolyl)-[(3R)-3-piperidyl]carbamoyl]phenyl] pyrazole-3-carboxylic acid]: more than 10 µM; `O=C(O)/C=C/c1ccc2ccnc(N(C(=O)c3ccc(-n4nnc5cccnc54)cc3F)[C@@H]3CCCNC3)c2c1` [Example 295, (R,E)-3-(1-(4-(3H-[1,2,3]triazolo[4,5-b]pyridin-3-yl)-2-fluoro-N-(piperidin-3-yl)benzamido)isoquinolin-7-yl)acrylic acid]: more than 20 µM. Consider `Cc1cccc2ccnc(N(C(=O)c3ccc(-c4n[nH]c5c4CNCC5)cc3F)[C@@H]3CCCNC3)c12` [Example 296, (R)-2-fluoro-N-(8-methylisoquinolin-1-yl)-N-(piperidin-3-yl)-4-(4,5,6,7-tetrahydro-1H-pyrazolo[4,3-c]pyridin-3-yl)benzamide], for which the IC50 was more than 20 µM. Regarding `Cc1cccc2ccnc(N(C(=O)N3CCC(O)(c4ccccc4OCc4ccccc4)CC3)[C@@H]3CCCNC3)c12` [Example 297, (R)-4-(2-(benzyloxy)phenyl)-4-hydroxy-N-(8-methylisoquinolin-1-yl)-N-(piperidin-3-yl)piperidine-1-carboxamide], the IC50 is 7.76 µM.

In the case of `Cc1cccc2ccnc(N(C(=O)c3ccc(-n4nnc(C(C)Cl)n4)cc3F)[C@@H]3CCCNC3)c12` (stereo partly drawn) [Example 298, 4-(5-(1-chloroethyl)-2H-tetrazol-2-yl)-2-fluoro-N-(8-methylisoquinolin-1-yl)-N—((R)-piperidin-3-yl) benzamide], the IC50 was 0.263 µM. To `Cc1cccc2ccnc(N(C(=O)N3CC=C(c4ccccc4OCc4ccccc4)CC3)[C@@H]3CCCNC3)c12` [Example 299, (R)-4-(2-(benzyloxy)phenyl)-N-(8-methylisoquinolin-1-yl)-N-(piperidin-3-yl)-3,6-dihydropyridine-1(2H)-carboxamide] belongs 5.5 µM; to `O=C(c1ccc(-n2nnc3cccnc32)cc1F)N(c1nccc2ccncc12)[C@@H]1CCCNC1` [Example 300, (R)-4-(3H-[1,2,3]triazolo[4,5-b]pyridin-3-yl)-2-fluoro-N-(2,7-naphthyridin-1-yl)-N-(piperidin-3-yl)benzamide], more than 20 µM; to `Cc1cccc2ccnc(N(C(=O)C3CCN(C=O)CC3)[C@@H]3CCCNC3)c12` [Example 301, (R)-1-formyl-N-(8-methylisoquinolin-1-yl)-N-(piperidin-3-yl) piperidine-4-carboxamide], more than 10 µM.

The values above are taken from patent publication US20240400555A1 (Initial Therapeutics, Inc., priority 2023, published 2024).
